EPA's ToxValDB 9.5
“And” between values parts separate entries of the source, which are not always exact repeats. Equal values may be shown once.

Tested on: Rattus norvegicus
Details: short-term, duration: 28 days, oral, gavage, Sprague-Dawley

## Cc1cccc(Nc2cc(Cl)nc(SCC(=O)O)n2)c1C [[4-Chloro-6-(2,3-xylidino)-2-pyrimidinylthio]acetic acid]
F, Clinical chemistry_Alanine aminotransferase
  LOEL: 25 mg/kg-day
F, Clinical chemistry_Albumin
  LOEL: 6.25 mg/kg-day
F, Clinical chemistry_Albumin/globulin ratio
  LOEL: 6.25 mg/kg-day
F, Clinical chemistry_Alkaline phosphatase
  LOEL: 6.25 mg/kg-day
F, Clinical chemistry_Aspartate aminotransferase
  LOEL: 25 mg/kg-day
F, Clinical chemistry_Cholesterol
  NOEL: 25 mg/kg-day
F, Clinical chemistry_Creatinine kinase
  NOEL: 25 mg/kg-day
F, Clinical chemistry_Direct bilirubin
  NOEL: 25 mg/kg-day
F, Clinical chemistry_Free thyroxine
  NOEL: 25 mg/kg-day
F, Clinical chemistry_Globulin
  LOEL: 6.25 mg/kg-day
F, Clinical chemistry_Indirect bilirubin
  NOEL: 25 mg/kg-day
F, Clinical chemistry_Sorbitol dehydrogenase
  LOEL: 6.25 mg/kg-day
F, Clinical chemistry_T bilirubin
  NOEL: 25 mg/kg-day
F, Clinical chemistry_Testosterone
  LOEL: 6.25 mg/kg-day
F, Clinical chemistry_Thyroid stimulating hormone
  LOEL: 6.25 mg/kg-day
F, Clinical chemistry_Total bile acids
  NOEL: 25 mg/kg-day
F, Clinical chemistry_Total bilirubin
  NOEL: 25 mg/kg-day
F, Clinical chemistry_Total protein
  LOEL: 12.5 mg/kg-day
F, Clinical chemistry_Total thyroxine
  NOEL: 25 mg/kg-day
F, Clinical chemistry_Total triiodothyronine
  LOEL: 12.5 mg/kg-day and 6.25 mg/kg-day
F, Clinical chemistry_Triglycerides
  NOEL: 25 mg/kg-day
F, Gene expression_Acox1
  LOEL: 6.25 mg/kg-day
F, Gene expression_Cyp2b1
  LOEL: 6.25 mg/kg-day
F, Gene expression_Cyp2b2
  LOEL: 6.25 mg/kg-day
F, Gene expression_Cyp4a1
  LOEL: 6.25 mg/kg-day
F, Hematology_Erythrocytes
  NOEL: 25 mg/kg-day
F, Hematology_Hematocrit
  NOEL: 25 mg/kg-day
F, Hematology_Hemoglobin
  NOEL: 25 mg/kg-day
F, Hematology_Leukocytes
  NOEL: 25 mg/kg-day
F, Hematology_Mean corpuscular hemoglobin concentration
  NOEL: 25 mg/kg-day
F, Hematology_Mean corpuscular volume
  NOEL: 25 mg/kg-day
F, Hematology_Platelets
  NOEL: 25 mg/kg-day
F, Hematology_Reticulocytes
  NOEL: 25 mg/kg-day
F, Hematology_S. neutrophils
  NOEL: 25 mg/kg-day
F, Nonneoplastic effects_Bone marrow - Hypocellularity
  NOEL: 25 mg/kg-day
F, Nonneoplastic effects_Kidney - Papilla, necrosis
  NOEL: 25 mg/kg-day
F, Nonneoplastic effects_Liver - Hepatocyte, Necrosis
  NOEL: 25 mg/kg-day
F, Nonneoplastic effects_Liver - Hepatocyte, cytoplasmic alteration
  LOEL: 6.25 mg/kg-day
F, Nonneoplastic effects_Liver - Hepatocyte, hypertrophy
  LOEL: 25 mg/kg-day
F, Nonneoplastic effects_Liver - Hepatocyte, vacuolization cytoplasmic
  NOEL: 25 mg/kg-day
F, Nonneoplastic effects_Liver - Necrosis
  NOEL: 25 mg/kg-day
F, Nonneoplastic effects_Nose - Olfactory epithelium, degeneration
  NOEL: 25 mg/kg-day
F, Nonneoplastic effects_Nose - Olfactory epithelium, hyperplasia
  NOEL: 25 mg/kg-day
F, Nonneoplastic effects_Nose - Olfactory epithelium, inflammation, suppurative
  NOEL: 25 mg/kg-day
F, Nonneoplastic effects_Nose - Olfactory epithelium, necrosis
  NOEL: 25 mg/kg-day
F, Nonneoplastic effects_Spleen - Extramedullary hematopoiesis, decreased
  NOEL: 25 mg/kg-day
F, Nonneoplastic effects_Stomach, forestomach - Epithelium, hyperplasia
  NOEL: 25 mg/kg-day
F, Nonneoplastic effects_Thymus - Atrophy
  NOEL: 25 mg/kg-day
F, Organ weights_Heart - Absolute
  NOEL: 25 mg/kg-day
F, Organ weights_Heart - Relative
  NOEL: 25 mg/kg-day
F, Organ weights_Liver - Absolute
  LOEL: 6.25 mg/kg-day
F, Organ weights_Liver - Relative
  LOEL: 6.25 mg/kg-day
F, Organ weights_Lung - Absolute
  NOEL: 25 mg/kg-day
F, Organ weights_Lung - Relative
  NOEL: 25 mg/kg-day
F, Organ weights_R. adrenal gland - Absolute
  NOEL: 25 mg/kg-day
F, Organ weights_R. adrenal gland - Relative
  NOEL: 25 mg/kg-day
F, Organ weights_R. kidney - Absolute
  LOEL: 6.25 mg/kg-day
F, Organ weights_R. kidney - Relative
  LOEL: 6.25 mg/kg-day
F, Organ weights_Spleen - Absolute
  NOEL: 25 mg/kg-day
F, Organ weights_Spleen - Relative
  NOEL: 25 mg/kg-day
F, Organ weights_Thymus - Absolute
  NOEL: 25 mg/kg-day
F, Organ weights_Thymus - Relative
  NOEL: 25 mg/kg-day
F, Organ weights_Thyroid gland - Absolute
  NOEL: 25 mg/kg-day
F, Organ weights_Thyroid gland - Relative
  NOEL: 25 mg/kg-day
F, Reproductive toxicity_Altered estrous cyclicity
  LOEL: 6.25 mg/kg-day
F, Survival rates
  NOEL: 25 mg/kg-day
F, body weight
  NOEL: 25 mg/kg-day
M, Clinical chemistry_Alanine aminotransferase
  LOEL: 6.25 mg/kg-day
M, Clinical chemistry_Albumin
  LOEL: 6.25 mg/kg-day
M, Clinical chemistry_Albumin/globulin ratio
  LOEL: 6.25 mg/kg-day
M, Clinical chemistry_Alkaline phosphatase
  LOEL: 6.25 mg/kg-day
M, Clinical chemistry_Aspartate aminotransferase
  LOEL: 25 mg/kg-day
M, Clinical chemistry_Cholesterol
  LOEL: 6.25 mg/kg-day
M, Clinical chemistry_Creatinine kinase
  NOEL: 25 mg/kg-day
M, Clinical chemistry_Direct bilirubin
  LOEL: 25 mg/kg-day
M, Clinical chemistry_Free thyroxine
  LOEL: 6.25 mg/kg-day
